# Target: T1, HCV-NS5b (Hepatitis C virus genotype 1b, UniProt Q9WMX2)
# T1 construct: (His)6 (C); made in house; host or cells: XL-1 cells (E. coli), IPTG-inducible plasmid
# Test: HCV-NS5b enzyme assay using homopolymer substrate
# Type: biochemical
# Conditions: not given
# Excerpt: The coding sequence of NS5b protein was cloned by PCR from pFKI389luc/NS3-3′/ET as described by Lohmann, V., et al. (1999) Science 285, 110-113 using the primers shown on page 266 of WO 2005/012288
# The cloned fragment is missing the C terminus 21 amino acid residues. The cloned fragment was inserted into an IPTG-inducible (isopropyl-β-D-thiogalactopyranoside) expression plasmid that provides an epitope tag (His)6 at the carboxy terminus of the protein.
# The recombinant enzyme was expressed in XL-1 cells and after induction of expression, the protein was purified using affinity chromatography on a nickel-NTA (nitrilotriacetic acid) column. Storage condition was 10 mM Tris-HCl pH 7.5, 50 mM NaCl, 0.1 mM EDTA (ethylenediaminetetraacetic acid), 1 mM DTT (dithiothreotol), 20% glycerol at −20° C.
# The polymerase activity was assayed by measuring incorporation of radiolabeled UTP into a RNA product using a biotinylated, homopolymeric template. The template was formed by annealing adenosine homopolymer to uridine 20-mer capped with a 5′-biotin group (biotin-U^20) in the ratio of 1:4. Typically, the assay mixture (50 μL) contained 25 mM Tris-HCl (pH 7.5), 40 mM KCl, 0.3 mM MgCl2, 0.05 mM EDTA, 0.2 unit/μL Superase RNAse Inhibitor, 5 mM DTT, 30 μM UTP (Uridine triphosphate), including [^3H]-UTP (uridine triphosphate) at 0.4 μCi/μL with final concentration of 1 μM, and 50 nM of homopolymeric template. Test compounds were initially dissolved in 100% DMSO and further diluted in aqueous buffer containing 5% DMSO. Typically, compounds were tested at concentrations between 2 nM and 50 μM. Reactions were started with addition of enzyme and allowed to continue at 30° C. for 90 minutes. Reactions were quenched with 8 μL of 100 mM EDTA and reaction mixtures (30 μL) were transferred to streptavidin-coated scintillation proximity microtiter plates (FlashPlates) and incubated at room temperature overnight. Incorporation of radioactivity was determined by scintillation counting.
# Inhibitor IC50 values were determined by adding test compound as ten point, two-fold serial dilutions in 100% DMSO with a final reaction concentration of 5%. IC50 was calculated by plotting the % inhibition against compound concentration and fitting the data to a constrained four parameter sigmoidal curve, equivalent to the “four parameter logistic equation”:
# Where Bottom is the minimum Y value, Top is the maximum Y value, and Hillslope is the slope of the linear portion of the semi-log curve. Top and Bottom were constrained to values of 0% and 100%, respectively. These analyses were performed using Graphpad Prism v.4.0 (Graphpad Software, Inc.) in conjunction with DS Accord for EXCEL 6.0 (Accelrys, Microsoft Corp.).
# The table below lists the IC50 values of compounds determined using the homopolymer substrates.
row,SMILES,IC50
1,O=C(O)c1ccc2c(C3CCCCC3)c3n(c2c1)CCCn1cc(C(=O)C(=O)N2CCCCC2)c2cccc-3c21 [Compound 114],0.089 µM
2,CN1CCN(C(=O)C(=O)c2cn3c4c(cccc24)-c2c(C4CCCCC4)c4ccc(C(=O)O)cc4n2CCC3)CC1 [Compound 123],0.155 µM

# Same assay, conditions: homopolymer substrate, [3H]-UTP incorporation, 30° C., 90 minutes; read-out: IC50
row,SMILES,IC50
1,O=C(O)c1ccc2c(C3CCCCC3)c3n(c2c1)CC(CO)Cn1ccc2cccc-3c21 (racemic) [Compound 377],0.28 µM
2,O=C(O)c1ccc2c(C3CCCCC3)c3n(c2c1)CCCCn1cc(CN2CCCCC2)c2cccc-3c21 [Compound 105],0.131 µM
3,O=C(O)c1ccc2c(C3CCCCC3)c3n(c2c1)CCCn1cc(CN2CCOCC2)c2cccc-3c21 [Compound 107],0.019 µM
4,CN(C)Cc1cn2c3c(cccc13)-c1c(C3CCCCC3)c3ccc(C(=O)O)cc3n1CC2 [Compound 108],0.083 µM
5,COC1CCN(Cc2cn3c4c(cccc24)-c2c(C4CCCCC4)c4ccc(C(=O)O)cc4n2CCC3)CC1 [Compound 115],0.087 µM
6,O=C(O)c1ccc2c(C3CCCCC3)c3n(c2c1)CCCn1cc(CN2CCCCO2)c2cccc-3c21 [Compound 116],0.138 µM
7,CC1CCN(Cc2cn3c4c(cccc24)-c2c(C4CCCCC4)c4ccc(C(=O)O)cc4n2CCC3)CC1 [Compound 117],0.108 µM
8,O=C(O)c1ccc2c(C3CCCCC3)c3n(c2c1)CCn1cc(CN2CCCCC2)c2cccc-3c21 [Compound 118],0.048 µM
9,O=C(O)c1ccc2c(C3CCCCC3)c3n(c2c1)CCCn1cc(CN2CCCCC2)c2cccc-3c21 [Compound 119],0.114 µM
10,O=C(O)c1ccc2c(C3CCCCC3)c3n(c2c1)CCn1cc(CN2CCOCC2)c2cccc-3c21 [Compound 122],0.051 µM
11,COC1CCCN(Cc2cn3c4c(cccc24)-c2c(C4CCCCC4)c4ccc(C(=O)O)cc4n2CCC3)C1 (stereo not drawn) [Compound 124],0.114 µM
12,CN1CCN(Cc2cn3c4c(cccc24)-c2c(C4CCCCC4)c4ccc(C(=O)O)cc4n2CCC3)CC1 [Compound 125],0.068 µM
13,O=C(O)c1ccc2c(C3CCCCC3)c3n(c2c1)CCCn1cc(CN2CCC(F)(F)CC2)c2cccc-3c21 [Compound 127],0.29 µM
14,O=C(O)c1ccc2c(C3CCCCC3)c3n(c2c1)CCCn1cc(CN2CCSCC2)c2cccc-3c21 [Compound 128],0.101 µM
15,CC1CCCN(Cc2cn3c4c(cccc24)-c2c(C4CCCCC4)c4ccc(C(=O)O)cc4n2CCC3)C1 (stereo not drawn) [Compound 130],0.111 µM
16,O=C(O)c1ccc2c(C3CCCCC3)c3n(c2c1)CCCn1cc(CCN2CCCCC2)c2cccc-3c21 [Compound 204],0.118 µM

row,SMILES,IC50
1,CC(C)NC1CCN2CCn3c(c(C4CCCCC4)c4ccc(C(=O)O)cc43)-c3cccc1c32 (stereo not drawn) [Compound 276],0.065 µM
2,CCCNC1CCN2CCn3c(c(C4CCCCC4)c4ccc(C(=O)O)cc43)-c3cccc1c32 (stereo not drawn) [Compound 277],0.056 µM
3,O=C(O)c1ccc2c(C3CCCCC3)c3n(c2c1)CCN1CCC(NC2CCOCC2)c2cccc-3c21 (stereo not drawn) [Compound 282],0.059 µM
4,"CN(C)C1CCN2CCn3c(c(C4CCCCC4)c4ccc(C(=O)O)cc43)-c3cccc1c32 (stereo not drawn) [Compound 285, 15-Cyclohexyl-4-(dimethylamino)-5,6,8,9-tetrahydro-4H-indolo[1′,2′:4,5][1,4]diazepino[6,7,1-ij]quinoline-12-carboxylic acid]",0.079 µM
5,CC1CN(Cc2cn3c4c(cccc24)-c2c(C4CCCCC4)c4ccc(C(=O)O)cc4n2CCC3)CC(C)O1 (stereo not drawn) [Compound 330],0.113 µM
6,C=C1Cn2cc(CN3CCCCC3)c3cccc(c32)-c2c(C3CCCCC3)c3ccc(C(=O)O)cc3n2C1 [Compound 341],0.135 µM
7,CN1CCN(Cc2cn3c4c(ccc(F)c24)-c2c(C4CCCCC4)c4ccc(C(=O)O)cc4n2CCC3)CC1 [Compound 348],0.143 µM
8,O=C(O)c1ccc2c(C3CCCCC3)c3n(c2c1)CCn1cc(CCN2CCCCC2)c2cccc-3c21 [Compound 349],0.098 µM
9,CCN(CC)Cc1cn2c3c(cccc13)-c1c(C3CCCCC3)c3ccc(C(=O)O)cc3n1CC2 [Compound 350],0.065 µM
10,CCN(C)Cc1cn2c3c(cccc13)-c1c(C3CCCCC3)c3ccc(C(=O)O)cc3n1CC2 [Compound 351],0.056 µM
11,O=C(O)c1ccc2c(C3CCCCC3)c3n(c2c1)CCCn1cc(CN2CCC(F)CC2)c2cccc-3c21 [Compound 352],0.089 µM
12,O=C(O)c1ccc2c(C3CCCCC3)c3n(c2c1)CCCn1cc(CN2CCCC(F)C2)c2cccc-3c21 (stereo not drawn) [Compound 353],0.109 µM
13,CCN1CCN(Cc2cn3c4c(cccc24)-c2c(C4CCCCC4)c4ccc(C(=O)O)cc4n2CCC3)CC1 [Compound 356],0.12 µM
14,O=C(O)c1ccc2c(C3CCCCC3)c3n(c2c1)CCCn1cc(CN2CCCC(O)C2)c2cccc-3c21 (stereo not drawn) [Compound 359],0.155 µM
15,O=C(O)c1ccc2c(C3CCCCC3)c3n(c2c1)CCCn1cc(CNC2CCOCC2)c2cccc-3c21 [Compound 360],0.149 µM

# The remaining lines, values ahead:
row,IC50,SMILES
1,0.096 µM,CC(C)NCc1cn2c3c(cccc13)-c1c(C3CCCCC3)c3ccc(C(=O)O)cc3n1CCC2 [Compound 110]
2,0.106 µM,CN(C)Cc1cn2c3c(cccc13)-c1c(C3CCCCC3)c3ccc(C(=O)O)cc3n1CCC2 [Compound 111]
3,0.109 µM,CN(C)Cc1cn2c3c(cccc13)-c1c(C3CCCCC3)c3ccc(C(=O)O)cc3n1CCCC2 [Compound 112]
4,0.084 µM,O=C(O)c1ccc2c(C3CCCCC3)c3n(c2c1)CCCn1cc(CN2CCC2)c2cccc-3c21 [Compound 113]
5,0.085 µM,CCN(CC)Cc1cn2c3c(cccc13)-c1c(C3CCCCC3)c3ccc(C(=O)O)cc3n1CCC2 [Compound 120]
6,0.049 µM,O=C(O)c1ccc2c(C3CCCCC3)c3n(c2c1)CCCn1cc(CN2CCCC2)c2cccc-3c21 [Compound 121]
7,0.096 µM,O=C(O)c1ccc2c(C3CCCCC3)c3n(c2c1)CCCn1cc(CN2CC[C@@H](F)C2)c2cccc-3c21 [Compound 126]
8,0.096 µM,CCN(C)Cc1cn2c3c(cccc13)-c1c(C3CCCCC3)c3ccc(C(=O)O)cc3n1CCC2 [Compound 129]
9,0.208 µM,O=C(O)c1ccc2c(C3CCCCC3)c3n(c2c1)CCCn1cc(CNC2CC2)c2cccc-3c21 [Compound 131]
10,0.223 µM,CCC(CC)NCc1cn2c3c(cccc13)-c1c(C3CCCCC3)c3ccc(C(=O)O)cc3n1CCC2 [Compound 132]
11,0.278 µM,CN(C)CCc1cn2c3c(cccc13)-c1c(C3CCCCC3)c3ccc(C(=O)O)cc3n1CCC2 [Compound 214]
12,1.29 µM,CCN(C)Cc1cn2c3c(cccc13)-c1c(C3CCCCC3)c3ccc(C(=O)O)cc3n1CCC2 [Compound 337]
13,0.133 µM,O=C(O)c1ccc2c(C3CCCCC3)c3n(c2c1)CCCn1ccc2c(F)ccc-3c21 [Compound 344]
14,0.127 µM,O=C(O)c1ccc2c(C3CCCCC3)c3n(c2c1)CCCn1cc(CN2CCCCC2)c2c(F)ccc-3c21 [Compound 345]
15,0.119 µM,CCN(CC)Cc1cn2c3c(ccc(F)c13)-c1c(C3CCCCC3)c3ccc(C(=O)O)cc3n1CCC2 [Compound 346]
16,0.122 µM,CCN(C)Cc1cn2c3c(ccc(F)c13)-c1c(C3CCCCC3)c3ccc(C(=O)O)cc3n1CCC2 [Compound 347]
17,0.11 µM,O=C(O)c1ccc2c(C3CCCCC3)c3n(c2c1)CCCn1cc(CN2CC[C@H](F)C2)c2cccc-3c21 [Compound 354]
18,0.153 µM,CSCCNCc1cn2c3c(cccc13)-c1c(C3CCCCC3)c3ccc(C(=O)O)cc3n1CCC2 [Compound 358]

# — patent US20090197856A1, “ANTIVIRAL COMPOUNDS” (Genelabs Technologies, Inc., priority 2007, published 2009)
